{"source": "BindingDB's records for doi:10.1021/jm001043t", "about": "(Lawrence Berkeley National Laboratory, 2001)", "key": {"[1]": {"molecular_target": "Cyclin-dependent kinase/G2/mitotic-specific cyclin- 1 (Homo sapiens, UniProt P06493)", "sequence (P06493 whole entry)": "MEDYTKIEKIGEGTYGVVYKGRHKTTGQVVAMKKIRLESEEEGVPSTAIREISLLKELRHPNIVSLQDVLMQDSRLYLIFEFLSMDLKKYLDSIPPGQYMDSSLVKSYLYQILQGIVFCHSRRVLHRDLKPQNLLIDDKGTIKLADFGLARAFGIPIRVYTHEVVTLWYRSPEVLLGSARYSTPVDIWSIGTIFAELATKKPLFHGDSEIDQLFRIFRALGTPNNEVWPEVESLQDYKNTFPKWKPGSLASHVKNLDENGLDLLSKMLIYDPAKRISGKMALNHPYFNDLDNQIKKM", "sequence (P14635 whole entry, further chain)": "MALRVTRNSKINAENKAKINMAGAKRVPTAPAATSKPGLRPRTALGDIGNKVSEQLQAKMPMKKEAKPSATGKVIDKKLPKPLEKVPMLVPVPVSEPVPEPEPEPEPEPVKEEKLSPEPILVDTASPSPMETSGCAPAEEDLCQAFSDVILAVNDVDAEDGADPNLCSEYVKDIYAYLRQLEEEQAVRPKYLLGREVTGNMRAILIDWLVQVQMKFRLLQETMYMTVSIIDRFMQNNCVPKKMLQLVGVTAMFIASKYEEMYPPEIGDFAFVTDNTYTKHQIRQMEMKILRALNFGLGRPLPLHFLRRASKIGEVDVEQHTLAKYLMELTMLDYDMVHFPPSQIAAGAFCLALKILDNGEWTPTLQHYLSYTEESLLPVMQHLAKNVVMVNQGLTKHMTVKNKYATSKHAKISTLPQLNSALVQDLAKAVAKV", "test": "CDK1/Cyclin B Kinase SPA Assay", "conditions": "pH 8; 30 °C", "procedure": "The biochemical activity of compounds was determined by incubation with specific enzyme and substrate in the presence 0.5 uM ATP/ [gamma-33P] ATP. After incubation, the reaction was stopped and the phosphorylated substrate was separated from nonincorporated radioactive ATP using Streptavidin-coated SPA beads, counted using TopCount (Packard) to measure substrate-incorporated phosphate."}, "[2]": {"molecular_target": "Cyclin-dependent kinase 2/G1/S-specific cyclin-E1 (Homo sapiens, UniProt P24941)", "test": "CDK2/Cyclin E and CDK4/Cyclin D1 Kinase Assay", "conditions": "pH 7.5; 30 °C", "procedure": "(§1) The enzyme was assayed with substrate GST-Rb in the presence of 10 uM ATP/[gamma-33P] ATP, and capturing the 33-P labeled reaction products on GSH-Sepharose beads. […] Use of 33P-labeled ATP allows this transfer to be monitored by scintillation counting."}, "[3]": {"molecular_target": "Cyclin-dependent kinase 4/G1/S-specific cyclin-D1 (Homo sapiens, UniProt P11802)", "sequence (P11802 whole entry)": "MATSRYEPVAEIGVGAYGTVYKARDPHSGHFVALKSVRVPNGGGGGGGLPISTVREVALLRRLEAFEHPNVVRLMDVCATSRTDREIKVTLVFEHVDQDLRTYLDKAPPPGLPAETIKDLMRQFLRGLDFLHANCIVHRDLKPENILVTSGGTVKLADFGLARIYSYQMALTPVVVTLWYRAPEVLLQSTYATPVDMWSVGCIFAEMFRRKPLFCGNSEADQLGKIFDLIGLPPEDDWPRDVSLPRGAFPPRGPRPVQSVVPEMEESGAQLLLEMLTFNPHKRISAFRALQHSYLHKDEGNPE", "sequence (P24385 whole entry, further chain)": "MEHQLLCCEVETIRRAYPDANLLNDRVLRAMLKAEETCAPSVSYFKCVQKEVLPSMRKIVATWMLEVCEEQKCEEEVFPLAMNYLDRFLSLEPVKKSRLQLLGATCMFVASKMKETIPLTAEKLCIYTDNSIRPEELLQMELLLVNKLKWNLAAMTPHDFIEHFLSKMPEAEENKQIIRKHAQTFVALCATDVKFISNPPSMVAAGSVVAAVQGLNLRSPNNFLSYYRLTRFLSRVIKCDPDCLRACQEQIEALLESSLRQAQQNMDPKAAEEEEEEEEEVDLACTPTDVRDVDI", "test": "CDK2/Cyclin E and CDK4/Cyclin D1 Kinase Assay", "conditions": "pH 7.5; 30 °C", "procedure": "as §1"}}, "note": "pIC50: −log10 of the molar value."}
{"smiles": "C[C@@H](Nc1nc(N[C@H]2CC[C@H](N)CC2)nc2c1ncn2C1CCCC1)c1ccccc1", "note": "[2,6,9-trisubstituted adenine derivative]", "values": [{"measurement": "pIC50", "setting": "[1]", "value": 5.70}, {"measurement": "pIC50", "setting": "[2]", "value": 6.14}, {"measurement": "pIC50", "setting": "[3]", "value": 5.06}]}
